biological target: T1, human GPR84 receptor (Homo sapiens, UniProt Q9NQS5); assay: cAMP HTRF assay for identification of cellular GPR84 antagonists; format: cell-based; conditions: CHO-K1 cells stably expressing human GPR84; Forskolin plus agonist 6-OAU; cAMP HTRF readout; average or median values
T1 construct: frozen aliquots prepared by acCELLerate; host or cells: CHO-K1
Source text: cAMP HTRF® Assay for Identification of Cellular GPR84 Antagonists
By using a Homogenous Time-Resolved Fluorescence (HTRF®) based assay (#62AM5PEJ, Cisbio, Condolet, France) the inhibition of the Gi-coupled GPR84 receptor can be detected. CHO-K1 cells stably expressing human GPR84 receptor (purchased from DiscoveRx, now Eurofins) were used and treated with Forskolin (F6886, Sigma, Germany) to stimulate membrane adenylyl cyclases and thereby unspecific cAMP formation. Activation of the Gi-coupled GPR84 by a natural or small molecule agonist (e.g. 6-n-octyl aminouracile, inhouse) results in inhibition of cellular cAMP formation which can be released again by antagonists to this receptor. Detection and quantification of cellular cAMP levels in this HTRF assay is achieved by interaction between a fluorescent cAMP tracer (cAMP-d2) and an Eu-cryptate labelled anti-cAMP antibody. Following excitation at 337 nm this pairing allows for the generation of a fluorescence resonance energy transfer (FRET) between the partners and results in FRET induced emissions at 665 nm and 620 nm, the latter representing background signal by Eu-cryptate labelled anti-cAMP antibody. Maximal signal is obtained in the absence of any cellular cAMP (no competition for the binding of the tracer to the antibody). Given the combination of the Gi coupling properties of GPR84 and the competitive nature of the detection system agonist treatment should result in an increase in the HTRF signal due to lowered cAMP levels. Any signal decrease in the presence of Forskolin, agonist and compound are indicative of antagonist mediated abrogation of GPR84 signalling.
For the assay, frozen aliquots of CHO-K1 cells expressing hGPR84 (prepared by acCELLerate, Hamburg, Germany) were thawed and a cell suspension (1.67E+06 cells/mL) in assay media (Ham's F12 Nutrient Mix, Thermo Fisher Scientific, Waltham, USA; 5% fetal calf serum, Biomol, Hamburg, Germany) containing cAMP-d2 (dilution 1:20, supplied with the kit #62AM5PEJ, Cisbio, Condolet, France) was prepared. After recovery of cells for 20 minutes at 37° C., 3 μL/well cell suspension including cAMP-d2 were added to a pre-dispensed assay plate (Greiner Bio-One, Kremsmuenster, Austria) containing 50 nl/well test compound in 100% DMSO or 100% DMSO as control. This was followed by a 30 minute incubation step at room temperature. The stimulation time was started by addition of 2 μL/well assay media containing 2.5×EC80 agonist 6-OAU and 2.5×EC90 Forskolin (negative control: 2.5×EC90 Forskolin in assay media) and was continued for 30 minutes at room temperature. The reaction was stopped by addition of 3 μL/well lysis buffer containing cAMP Eu-Cryptate antibody (dilution 1:20) (both supplied with the kit #62AM5PEJ, Cisbio, Condolet, France). To enable complete lysis, plates were incubated for 60 minutes at room temperature before measurement in an HTRF reader, e.g. a PHERAstar (BMG Labtech, Ortenberg, Germany).
From the fluorescence emissions at 665 nm (FRET) and at 620 nm (background signal of Eu-cryptate) the ratio (emission at 665 nm divided by emission at 620 nm×10000) was calculated and the data were normalized (reaction without test compound, only 100% DMSO=0% inhibition; all other assay components except agonist=100% inhibition). For dose response testing on the same microtiter plate, compounds were tested at 11 different concentrations in the range of 20 μM to 0.07 nM (20 μM, 5.7 μM, 1.6 μM, 0.47 μM, 0.13 μM, 38 nM, 11 nM, 3.1 nM, 0.89 nM, 0.25 and 0.07 nM; dilution series prepared before the assay at the level of the 100-fold conc. stock solutions by serial 1:3.5 dilutions in 100% DMSO) in duplicate values for each concentration. IC50 values were calculated by 4-parameter fitting using a commercial software package (Genedata Screener, Basel, Switzerland).
Examples were tested in selected biological assays one or more times. […]

T1 sequence (Q9NQS5 whole entry): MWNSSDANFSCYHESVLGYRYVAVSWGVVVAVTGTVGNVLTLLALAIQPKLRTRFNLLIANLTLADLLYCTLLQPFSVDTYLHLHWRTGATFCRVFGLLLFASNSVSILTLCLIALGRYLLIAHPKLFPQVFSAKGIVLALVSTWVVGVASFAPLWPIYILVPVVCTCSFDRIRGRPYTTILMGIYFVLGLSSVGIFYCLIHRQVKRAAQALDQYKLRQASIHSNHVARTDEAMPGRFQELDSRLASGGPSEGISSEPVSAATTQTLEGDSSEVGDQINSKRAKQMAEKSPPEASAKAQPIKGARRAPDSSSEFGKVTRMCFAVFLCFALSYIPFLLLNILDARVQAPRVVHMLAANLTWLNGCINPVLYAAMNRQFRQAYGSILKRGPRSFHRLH

Compound	IC50 [nM]
Cc1c(C(=O)NCCC#N)oc2c1-c1nn(Cc3ccc(Cl)cc3)cc1CC2 [Example 70, 2-[(4-chlorophenyl)methyl]-N-(2-cyanoethyl)-8-methyl-4,5-dihydro-2H-furo[2,3-g]indazole-7-carboxamide]	9500
Cc1c(C(=O)NCC2CCCO2)oc2c1-c1nn(Cc3ccc(F)cc3Cl)cc1CC2 (racemic) [Example 92, 2-[(2-chloro-4-fluorophenyl)methyl]-8-methyl-N-[(2RS)-tetrahydrofuran-2-ylmethyl]-4,5-dihydro-2H-furo[2,3-g]indazole-7-carboxamide]	160
Cc1ccccc1Cn1cc2c(n1)-c1c(oc(C(=O)NC[C@@H]3COCCO3)c1C)CC2 [Example 5, N-{[(2R)-1,4-dioxan-2-yl]methyl}-8-methyl-2-[(2-methylphenyl)methyl]-4,5-dihydro-2H-furo[2,3-g]indazole-7-carboxamide]	9
Cc1c(C(=O)NCC2CC2)oc2c1-c1nn(Cc3ccc(Cl)cc3)cc1CC2 [Example 51, 2-[(4-chlorophenyl)methyl]-N-(cyclopropylmethyl)-8-methyl-4,5-dihydro-2H-furo[2,3-g]indazole-7-carboxamide]	2720
Cc1c(C(=O)NCC(=O)N2CCCC2)oc2c1-c1nn(Cc3ccc(Cl)cc3)cc1CC2 [Example 34, 2-[(4-chlorophenyl)methyl]-8-methyl-N-[2-oxo-2-(pyrrolidin-1-yl)ethyl]-4,5-dihydro-2H-furo[2,3-g]indazole-7-carboxamide]	1140
Cc1c(C(=O)N2CCN(S(C)(=O)=O)CC2)oc2c1-c1nn(Cc3ccc(Cl)cc3)cc1CC2 [Example 67, {2-[(4-chlorophenyl)methyl]-8-methyl-4,5-dihydro-2H-furo[2,3-g]indazol-7-yl}[4-(methanesulfonyl)piperazin-1-yl]methanone]	7830
COCCNC(=O)c1oc2c(c1C)-c1nn(Cc3ccc(Cl)cc3)cc1CC2 [Example 40, 2-[(4-chlorophenyl)methyl]-N-(2-methoxyethyl)-8-methyl-4,5-dihydro-2H-furo[2,3-g]indazole-7-carboxamide]	410
Cc1c(C(=O)NC2CCOCC2)oc2c1-c1nn(Cc3ccc(Cl)cc3)cc1CC2 [Example 77, 2-(4-chlorobenzyl)-8-methyl-N-(tetrahydro-2H-pyran-4-yl)-4,5-dihydro-2H-furo[2,3-g]indazole-7-carboxamide]	13800
Cc1c(C(=O)NCc2cc[nH]n2)oc2c1-c1nn(Cc3ccc(Cl)cc3)cc1CC2 [Example 41, 2-[(4-chlorophenyl)methyl]-8-methyl-N-[(1H-pyrazol-3-yl)methyl]-4,5-dihydro-2H-furo[2,3-g]indazole-7-carboxamide]	520
Cc1c(C(=O)N2CCC[C@H]2C(N)=O)oc2c1-c1nn(Cc3ccc(Cl)cc3)cc1CC2 [Example 91, 1-{2-[(4-chlorophenyl)methyl]-8-methyl-4,5-dihydro-2H-furo[2,3-g]indazole-7-carbonyl}-L-prolinamide]	≥ 20000
Cc1c(C(=O)NCC(=O)NC2CC2)oc2c1-c1nn(Cc3ccc(Cl)cc3)cc1CC2 [Example 33, 2-[(4-chlorophenyl)methyl]-N-[2-(cyclopropylamino)-2-oxoethyl]-8-methyl-4,5-dihydro-2H-furo[2,3-g]indazole-7-carboxamide]	3310
Cc1c(C(=O)NCC(=O)N(C)C)oc2c1-c1nn(Cc3ccc(Cl)cc3)cc1CC2 [Example 36, 2-[(4-chlorophenyl)methyl]-N-[2-(dimethylamino)-2-oxoethyl]-8-methyl-4,5-dihydro-2H-furo[2,3-g]indazole-7-carboxamide]	1190
Cc1ccc(Cn2cc3c(n2)-c2c(oc(C(=O)NC[C@@H]4CCCO4)c2C)CC3)cc1 [Example 1, 8-methyl-2-[(4-methylphenyl)methyl]-N-[(2S)-tetrahydrofuran-2-ylmethyl]-4,5-dihydro-2H-furo[2,3-g]indazole-7-carboxamide]	18
Cc1c(C(=O)NCc2ccno2)oc2c1-c1nn(Cc3ccc(Cl)cc3)cc1CC2 [Example 28, 2-[(4-chlorophenyl)methyl]-8-methyl-N-[(1,2-oxazol-5-yl)methyl]-4,5-dihydro-2H-furo[2,3-g]indazole-7-carboxamide]	1010
Cc1c(C(=O)NCC2CCS(=O)(=O)C2)oc2c1-c1nn(Cc3ccc(Cl)cc3)cc1CC2 (centres unmarked) [Example 59, 2-(4-chlorobenzyl)-N-[(1,1-dioxidotetrahydrothiophen-3-yl)methyl]-8-methyl-4,5-dihydro-2H-furo[2,3-g]indazole-7-carboxamide]	5280
Cc1c(C(=O)NC2CCC(=O)NC2)oc2c1-c1nn(Cc3ccc(Cl)cc3)cc1CC2 (centres unmarked) [Example 81, 2-[(4-chlorophenyl)methyl]-8-methyl-N-(6-oxopiperidin-3-yl)-4,5-dihydro-2H-furo[2,3-g]indazole-7-carboxamide]	16100
CCN(CC)C(=O)CNC(=O)c1oc2c(c1C)-c1nn(Cc3ccc(Cl)cc3)cc1CC2 [Example 31, 2-[(4-chlorophenyl)methyl]-N-[2-(diethylamino)-2-oxoethyl]-8-methyl-4,5-dihydro-2H-furo[2,3-g]indazole-7-carboxamide]	2530
Cc1c(C(=O)N2CCCCC2)oc2c1-c1nn(Cc3ccc(Cl)cc3)cc1CC2 [Example 87]	17100
Cc1c(C(=O)NCC2CCCO2)oc2c1-c1nn(Cc3ccc(Cl)cc3)cc1CC2 (racemic) [Example 21, 2-[(4-chlorophenyl)methyl]-8-methyl-N-[(2RS)-tetrahydrofuran-2-ylmethyl]-4,5-dihydro-2H-furo[2,3-g]indazole-7-carboxamide]	58
Cc1c(C(=O)N2CC3CC3C2)oc2c1-c1nn(Cc3ccc(Cl)cc3)cc1CC2 (centres unmarked) [Example 68, (3-azabicyclo[3.1.0]hexan-3-yl){2-[(4-chlorophenyl)methyl]-8-methyl-4,5-dihydro-2H-furo[2,3-g]indazol-7-yl}methanone]	7970
Cc1c(C(=O)N(C)Cc2ccncc2)oc2c1-c1nn(Cc3ccc(Cl)cc3)cc1CC2 [Example 66, 2-[(4-chlorophenyl)methyl]-/,8-dimethyl-N-[(pyridin-4-yl)methyl]-4,5-dihydro-2H-furo[2,3-g]indazole-7-carboxamide]	7590
Cc1c(C(=O)NCCN2CCCCC2)oc2c1-c1nn(Cc3ccc(Cl)cc3)cc1CC2 [Example 25, 2-[(4-chlorophenyl)methyl]-8-methyl-N-[2-(piperidin-1-yl)ethyl]-4,5-dihydro-2H-furo[2,3-g]indazole-7-carboxamide]	1370
Cc1c(C(=O)NCC(=O)N2CCOCC2)oc2c1-c1nn(Cc3ccc(Cl)cc3)cc1CC2 [Example 35, 2-[(4-chlorophenyl)methyl]-8-methyl-N-[2-(morpholin-4-yl)-2-oxoethyl]-4,5-dihydro-2H-furo[2,3-g]indazole-7-carboxamide]	3000
Cc1c(C(=O)NC(C)(C)C#N)oc2c1-c1nn(Cc3ccc(Cl)cc3)cc1CC2 [Example 86, 2-[(4-chlorophenyl)methyl]-N-(2-cyanopropan-2-yl)-8-methyl-4,5-dihydro-2H-furo[2,3-g]indazole-7-carboxamide]	17100
Cc1c(C(=O)NCC2CCCO2)oc2c1-c1nn(Cc3cccc(Cl)c3)cc1CC2 (single isomer, unassigned) [Example 15-1]	88
Cc1c(C(=O)N2CCC(O)CC2)oc2c1-c1nn(Cc3ccc(Cl)cc3)cc1CC2 [Example 71, {2-[(4-chlorophenyl)methyl]-8-methyl-4,5-dihydro-2H-furo[2,3-g]indazol-7-yl}(4-hydroxypiperidin-1-yl)methanone]	9570
